“And” between values parts separate entries of the source, which are not always exact repeats. Identical values can stand only once.
Assays:
[1] = test system: Anti-GD2 antibody; test: ELISA of immobilized MAP-form peptides with control anti-GD2 antibody; type: binding; details: MAP form 100 ng/well
Procedure: A 0.1M NaHCO3 solution containing a GD3-mimetic peptide of the invention in the above MAP form (100 ng/100 μL) was added to the wells of a 96-well micro-titer plate, for immobilization at room temperature for one hour. Subsequently, in a manner similar to the ELISA method employed in Example 2, binding affinity of the GD3-mimetic peptide to GD3 antibody 4F6 was investigated.
Anti-GD2 antibody and anti-OAcGD3 antibody (Cerato, E., et al., Hybridoma, 16(4), 307-316 (1997)) were used as controls (these antibodies were kindly provided by from Dr. Portoukalian).

[2] = Titer against GD3 (ELISA) of antiserum from mice immunized with MAP peptides (Example 4); type: in vivo, mice (C57BL/6); details: for reactivity of antiserum with GD3 (ELISA absorbance): individual mice
Procedure: Four species of GD3-mimetic peptide (MAP) obtained in Example 3 (2) was dissolved in PBS so as to attain a concentration of 200 μg/mL. The solution was added to Freund's complete (or incomplete) adjuvant (1:1, by volume), to thereby prepare an emulsion.
Eight mice (C57BL/6) were immunized by subcutaneous administration of the above emulsion (0.2 mL/mouse, in one administration, […]). Administration was performed every two weeks (for the second and subsequent administrations, Freund's incomplete adjuvant was used). After one week following respective administrations, blood was collected from the tail of each mouse, to thereby yield antiserum.
The antiserum obtained directly after the first administration will be referred to “1-st,” that obtained after the second administration will be referred to “2-nd,” and that obtained after the third administration will be referred to “3-rd.”
The titer, against GD3, of each of the antiserum samples (3×8 mice=24 samples) obtained in the (1) above was measured through ELISA as described below.
The thus-obtained purified GD3 was dissolved in methanol, whereby a GD3 solution having a concentration of 10 μg/mL was prepared. The GD3 solution was added to the wells of a 96-well micro-titer plate in amounts of 10 μL per well (which corresponds to 100 ng GD3 per well), and methanol was evaporated. Subsequently, a blocking solution (TBS supplemented with 1% BSA) was added to the wells in amounts of 50 μL per well, for blocking at 37° C. for 4 hours.
The supernatant was discarded. Each of the antiserum samples obtained in (1) above was diluted 100-fold, 400-fold, or 1,600 fold with the above-mentioned blocking solution. The diluted antiserum (50 μL) was added to each well for reaction at 4° C. overnight. The well was washed six times with TBS, and thereafter, HRP-labeled […] diluted 5,000-fold with the blocking solution was added (50 μL per well) for reaction for 2 hours at room temperature. The well was washed four times with TBS, and thereafter, enzymatic activity (peroxidase) of the well was detected with TMB solution (50 μL). The reaction was stopped with 1N HCl (50 μL), and the value corresponding to “420 nm-620 nm” was calculated.
A control sample was prepared as follows. […] The synthesized peptide was administered to a mouse for immunization, and the obtained antiserum served as a control sample. The titer of the control sample was obtained in a manner similar to that described above. (However, the number of provided mice was five, and only a 100-fold diluted solution was used.) This control peptide sample was also used in the form of MAP as described above.

[3] = test system: T-cell-rich lymphocytes / IL-2-dependent CTLL2 cells; test: Cell response test: IL-2 activity (3H thymidine up-take of CTLL2 cells) in supernatant of spleen cells of mice immunized with GD3; type: cell-based, mouse; details: for IL-2 production by T-cell-rich lymphocytes: lymphocytes from GD3-immunized mouse; for 3H Thymidine up-take into CTLL2 cells, mean ± SE (4 wells): mice immunized with GD3
Procedure: Similar to the case of immunization with R4-KLH, antiserum samples were also prepared through immunization with GD3 (30 μg).
The spleen aseptically removed from each of the above-immunized mice was minced in a 10% FCS-supplemented RPMI 1640 medium. By use of a nylon wool column, T-cell-rich lymphocytes were prepared and the cells were counted. The above medium containing the cells in an amount of 10^5 cells per 150 μL was added to each of the wells of a culture plate. PHA was added so as to attain a final concentration of 1 μg/mL. A peptide of the present invention or any of different gangliosides in PBS was added, and the mixture was incubated for 96 hours. A supernatant (100 μL) was obtained from each well. The IL-2 activity of the supernatant was determined through use of IL-2-dependent mouse cells, CTLL2. Briefly, the supernatant (100 μL) diluted 2 to 50-fold with a medium was added to the wells in an amount of 10^4 CTLL2 cells/well, followed by incubation at 37° C. for 48 hours. Subsequently, 3H-thymidine (0.5 μCi) was added to each well, followed by incubation for 6 hours. CTLL2 cells were recovered on a paper filter and counted for 3H.

[4] = antiserum 1st (after first administration), dilution factor 1/100, MAP 5 μg/mouse s.c.
[5] = antiserum 1st, dilution factor 1/400
[6] = antiserum 1st, dilution factor 1/1600
[7] = antiserum 2nd (after second administration), dilution factor 1/100
[8] = antiserum 2nd, dilution factor 1/400
[9] = antiserum 2nd, dilution factor 1/1600
[10] = antiserum 3rd (after third administration), dilution factor 1/100
[11] = antiserum 3rd, dilution factor 1/400
[12] = antiserum 3rd, dilution factor 1/1600
[13] = stimulant 1 μg/ml, supernatant dilution 1/20
[14] = stimulant 1 μg/ml, supernatant dilution 1/50
[15] = stimulant 1 μg/ml, supernatant dilution ½
[16] = stimulant 1 μg/ml, supernatant dilution ⅕
[17] = stimulant 2 μg/ml, supernatant dilution 1/20
[18] = stimulant 2 μg/ml, supernatant dilution 1/50
[19] = stimulant 2 μg/ml, supernatant dilution ½
[20] = stimulant 2 μg/ml, supernatant dilution ⅕
[21] = stimulant 5 μg/ml, supernatant dilution 1/20
[22] = stimulant 5 μg/ml, supernatant dilution 1/50
[23] = stimulant 5 μg/ml, supernatant dilution ½
[24] = stimulant 5 μg/ml, supernatant dilution ⅕

Sequence | ELISA absorbance, Anti-GD2 antibody ([1]; Serum % 12.50%) | ELISA absorbance, Anti-GD2 antibody ([1]; Serum % 25%) | ELISA absorbance, Anti-GD2 antibody ([1]; Serum % 50%) | ELISA absorbance, Anti-GD2 antibody ([1]; Serum % 100%) | reactivity of antiserum with GD3 (ELISA absorbance) [2, 4] | reactivity of antiserum with GD3 (ELISA absorbance) [2, 5] | reactivity of antiserum with GD3 (ELISA absorbance) [2, 6] | reactivity of antiserum with GD3 (ELISA absorbance) [2, 7] | reactivity of antiserum with GD3 (ELISA absorbance) [2, 8] | reactivity of antiserum with GD3 (ELISA absorbance) [2, 9] | reactivity of antiserum with GD3 (ELISA absorbance) [2, 10] | reactivity of antiserum with GD3 (ELISA absorbance) [2, 11] | reactivity of antiserum with GD3 (ELISA absorbance) [2, 12] | IL-2 production by T-cell-rich lymphocytes [3] | 3H Thymidine up-take into CTLL2 cells, mean ± SE (4 wells) [3, 13] | 3H Thymidine up-take into CTLL2 cells, mean ± SE (4 wells) [3, 14] | 3H Thymidine up-take into CTLL2 cells, mean ± SE (4 wells) [3, 15] | 3H Thymidine up-take into CTLL2 cells, mean ± SE (4 wells) [3, 16] | 3H Thymidine up-take into CTLL2 cells, mean ± SE (4 wells) [3, 17] | 3H Thymidine up-take into CTLL2 cells, mean ± SE (4 wells) [3, 18] | also measured
GLAPPDYAERFELLS [GD3R3, tested as phage clone, MAP form or peptide] | 0.077 | 0.118 | 0.036 | 0.191 | 0.105 and 0.062 (2×) and 0.098 and 0.051 and 0.04 and 0.165 and 0.169 | 0.077 and 0.004 and 0.048 and 0.016 and 0.026 and 0.067 and 0.071 and 0.083 | 0.009 and 0.016 and 0.006 and 0.023 and 0.003 and 0.031 and 0.015 and 0.017 | 0.116 and 0.098 and 0.08 (2×) and 0.165 and 0.132 and 0.135 and 0.179 | 0.078 and 0.079 and 0.112 and 0.118 and 0.088 (2×) and 0.076 and 0.054 | 0.025 (2×) and 0.034 and 0.022 and 0.027 and 0.018 and 0.07 and 0.024 | 0.126 and 0.143 and 0.069 and 0.189 (2×) and 0.073 and 0.098 and 0.047 | 0.039 and 0.032 and 0.028 and 0.073 and 0.033 and 0.03 and 0.023 and 0.022 | 0.027 and 0.026 and 0.018 (3×) and 0.017 and 0.013 and 0.016 | production of IL-2 has been confirmed | 1153 ± 246 | 571 ± 104 | 4066 ± 853 | 2654 ± 486 | 1540 ± 467 | 749 ± 118 | 3H Thymidine up-take into CTLL2 cells, mean ± SE (4 wells) [3, 19]: 5791 ± 1154; 3H Thymidine up-take into CTLL2 cells, mean ± SE (4 wells) [3, 20]: 3243 ± 634; 3H Thymidine up-take into CTLL2 cells, mean ± SE (4 wells) [3, 21]: 1566 ± 328; 3H Thymidine up-take into CTLL2 cells, mean ± SE (4 wells) [3, 22]: 761 ± 102; 3H Thymidine up-take into CTLL2 cells, mean ± SE (4 wells) [3, 23]: 7536 ± 1247; 3H Thymidine up-take into CTLL2 cells, mean ± SE (4 wells) [3, 24]: 3528 ± 543
RHAYRSMAEWGFLYS (RHAYRSMAQWGFLYS) [GD3R4, tested as phage clone, MAP form or peptide] | 0.061 | 0.072 | 0.103 | 0.149 | 0.071 and 0.247 and 0.086 (2×) and 0.08 and 0.063 and 0.082 and 0.042 | 0.047 and 0.108 and 0.033 and 0.041 and 0.034 and 0.037 and 0.032 and 0.021 | 0.014 (2×) and 0.052 and 0.009 and 0.008 and 0.006 and 0.012 and 0.007 | 0.08 and 0.164 and 0.195 and 0.153 and 0.124 and 0.147 and 0.05 and 0.122 | 0.07 and 0.114 and 0.128 and 0.093 and 0.106 and 0.079 and 0.057 and 0.058 | 0.022 and 0.026 and 0.062 and 0.033 and 0.031 and 0.041 and 0.013 and 0.019 | 0.088 and 0.176 and 0.253 and 0.19 and 0.168 and 0.113 and 0.147 and 0.116 | 0.042 and 0.093 and 0.111 and 0.104 and 0.098 and 0.045 and 0.061 and 0.053 | 0.008 and 0.029 and 0.026 and 0.022 and 0.039 and 0.013 (2×) and 0.024 | production of IL-2 has been confirmed | 1994 ± 348 | 881 ± 127 | 5867 ± 1213 | 3418 ± 749 | 3248 ± 613 | 1274 ± 156 | reactivity of antiserum with GD3 ([2]; peptide used as immunogen (MAP)): high reactivity with GD3; 3H Thymidine up-take into CTLL2 cells, mean ± SE (4 wells) [3, 19]: 12671 ± 1643; 3H Thymidine up-take into CTLL2 cells, mean ± SE (4 wells) [3, 20]: 8349 ± 1014; 3H Thymidine up-take into CTLL2 cells, mean ± SE (4 wells) [3, 21]: 7526 ± 839; 3H Thymidine up-take into CTLL2 cells, mean ± SE (4 wells) [3, 22]: 2684 ± 387; 3H Thymidine up-take into CTLL2 cells, mean ± SE (4 wells) [3, 23]: 14237 ± 1884; 3H Thymidine up-take into CTLL2 cells, mean ± SE (4 wells) [3, 24]: 11358 ± 1563
